From patent US20070212772A1, “RHIZOBIUM LEGUMINOSARUM STRAIN AND USE THEREOF AS PLANT INOCULANT” (priority 2005, published 2007)

Test system: pea (cultivar 'Mozart')
Assay: Growth chamber pot test of Rhizobium strains on pea, biomass and nitrogen in plant tissue (Experiment 1)
Assay type: in vivo
Parameters: Total Nitrogen per Shoot: unit not given here
Details: 35 days; for % Nitrogen: shoot tissue
Procedure: • 1) To evaluate eight previously untested Rhizobium strains for their ability to enhance biomass accumulation and nitrogen in legume plant tissue. These eight strains are evaluated against known strains PBI #108 and PBI#101. Note that PBI #108 is a commercial strain of Rhizobium leguminosarum that can be obtained from the Australian Legume Inoculants Research Unit of the New South Wales Agriculture Horticultural Research & Advisory Station, Locked Bag 26, Gosford, New South Wales, 2250, Australia under the deposit number ALIRU SU303. PBI #101 is a strain available from the USDA under deposit number 2449. Experimental Design: Factorial Design: 2 Soil Types (Aberdeen soil, Kyle soil) • 1 Pea seed Cultivar (‘Mozart’) • 12 Seed Treatments (Uninoculated, Nitrogen, Eight untested strains, PBI #108, PBI #101) • Randomized Block. Strain Selection Criteria: • 1) Collected field soil was sifted through a ¼ inch screen to remove any lumps of soil, roots, other plant material, sticks, etc. The soil was then spread out to dry for a period of one week and then placed into plastic bins until needed. • 2) Pots (4-½ inch×5 inch deep) were then labeled according to treatment. A sterile square pieces of spun polyester (black landscape fabric) was then placed into the bottom of each of the pots to prevent the sand/soil mixture from draining out through the pots drainage holes. • 3) A 50% mixture of Kyle soil/silica sand or 50% Aberdeen soil/silica sand (Unimum Industries—industrial quartz) was used as a potting media. • 4) After filling each pot with the sand/soil mixture each pot was placed into a large plastic Ziploc™ bag. • 5) One day before seeding each pot was watered with 150 ml of tap water (non-sterile) and the bags were sealed until seeded. • 6) On the day of seeding 5.5 kg of pea seed—cultivar ‘Mozart’—was divided up into eleven 500 gram amounts and surfaced sterilized via the following method: • a) Place 500 grams of seed into a 2 liter glass Erlenmeyer flask • b) Cover the seeds with 95% Ethanol, let stand 60 seconds then drain. • c) Add a fresh preparation of a 50% bleach solution (1000 mls into 1000 mls water-2.6% NaOCl active), add seed, shake and let stand 5 minutes, then drain. • d) Rinse with 4 changes of R.O. water (non-sterile) followed by one rinse with sterile R.O. water. • 7) After surface sterilization each 500 g amount of seed was spread into an aluminum foil pan lined with sterile paper towel and blotted dry and then transferred into clean large Ziploc™ bags. • 8) After inoculation uninoculated and inoculated pea seeds were planted. Five pea seeds were placed into each pot 2 inches below the surface. Spoons and forceps used to plant the seed were washed and dried thoroughly between treatments. 9) The bags were then sealed and placed into a growth chamber that was set for the following conditions: [table] • 10) Each pot was placed into a plastic bin in a randomized block design (two bins contained one pot of each of the 24 treatments). A total of 20 bins were used to hold all of the treatments. Three times a week (Monday's, Wednesdays and Fridays) each plastic bin was moved one bin position to the right. This was done to ensure differences in light intensity/quality or temperature were consistent for each of the treatments inside the growth chamber. • 11) Bags were kept fully closed until 50% emergence was observed, then fully opened. • 12) Plants were checked daily and watered as required using tap water. • 13) After 35 days plants were photographed (digital image file) and then harvested.

With Nitrogen the “Shoot dry weights (mean)” value (Aberdeen soil) was 0.45 grams per shoot, the “Total Nitrogen per Shoot” value (Aberdeen soil) was 0.0144 and the “% Nitrogen” value (Aberdeen soil) was 3.18%. For the same substance, the “Shoot dry weights (mean)” value (Kyle soil) was 0.46 grams per shoot, the “Total Nitrogen per Shoot” value (Kyle soil) was 0.0131 and the “Visual Assessment of Plant Color, Ranking Based on Color” value (Kyle soil, ranked from darkest green (1) to yellow/green (12)) was 1. For the same substance, the “% Nitrogen” value (Kyle soil) was 2.80%.
